Experimental data published in patent publication US12662513B2, “Peptidic modulators of quorum sensing in Staphylococcus epidermidis” (priority 2016, dated 2026).
Entries after “also recorded” stand apart in the source; their conditions may differ. Bridge positions count the residues as written; N and C are the ends. Ends that are not written are not given here. Peptide text beside a SMILES is read from it.

Key:
[1] = system: S. epidermidis Group-I RP62A biofilm; conditions: 10 μM, 24 h
Experimental: (§1) Biological reagents, strains, and general methods. All standard reagents were purchased from commercial sources and used according to enclosed instructions. The S. epidermidis fluorescence reporter strains AH3408 (Group-I), AH3567 (Group-II), and AH3409 (Group-III) were cultured in Tryptic Soy Broth (TSB, from Sigma) augmented with 10 μg/mL of erythromycin (36). The S. epidermidis wild-type strain RP62A (Group-I) was cultured in TSB (from Sigma or EMD Millipore). The S. aureus fluorescence reporter strains AH1677 (Group-I), AH430 (Group-II), AH1747 (Group-III), and AH1872 (Group-IV) were cultured in Brain Heart Infusion (BHI, from Teknova) augmented with 10 μg/mL of chloramphenicol (65). All cultures were grown at 37° C. with shaking (200 rpm) unless noted otherwise. Absorbance and fluorescence measurements were obtained using a Biotek Synergy 2 microplate reader operating Gen5 data analysis software. IC50 values and EC50 values were determined from sigmoidal curve fits using GraphPad Prism software (v. 6.0).
Crystal violet biofilm assay protocol. […] Each solution was tested in triplicate.

AgrC-I receptor = AgrC-I receptor (Staphylococcus epidermidis, UniProt Q5HMY3); assay: cell-based; assay type: cell-based, S. epidermidis; conditions: for Mode/strength of activity toward AgrC-I (Group I), in words: dose response; for Activity toward Group-I at lower concentration, in words: single concentration 100 nM (or 1 μM)
Experimental: The initial set of 14 analogs (listed in Table 1) was synthesized using solid-phase peptide chemistry and purified to homogeneity using previously established HPLC methods (59). Each analog was tested for its ability to modulate the activity of the AgrC-I receptor using a wild-type S. epidermidis Group-I fluorescence reporter strain. This strain contained a reporter plasmid encoding a gfp gene fused to the P3 promoter found upstream of RNAIII (36).
as §1
(§2) Fluorescence reporter assay protocol. […] Each peptide solution was tested in triplicate. […] Plates were then incubated at 37° C. for 24 h. Fluorescence (EX 500 nm/EM 540 nm) and OD600 of each well was measured using a plate reader, and the fluorescence values were normalized to the DMSO control.
(§3) The remaining steps of the fluorescence assay were the same as above.

AgrC-III = conditions: for Activity toward Group-III at lower concentration, in words: single concentration 100 nM (or 1 μM)
Excerpt: (§4) However, the biological significance of this agr interference remains unclear, although it has been hypothesized to potentially play a role in competition between different groups in a mixed bacteria milieu (18). […] To this end, the AIP analogs discussed above were screened in GFP reporter strains of Groups-II and -III S. epidermidis to complement the Group-I S. epidermidis data in Tables 1 and 2 (see Methods; FIGS. 7A and 7B).
as §1, §2, §3

AgrC-II = conditions: for Activity toward Group-II at lower concentration, in words: single concentration 100 nM (or 1 μM)
Excerpt: as §4, §1, §2, §3

[2] = system: AgrC I-IV receptors in S. aureus Groups-I-IV; assay: Fluorescence (GFP) reporter strain assays, S. aureus Groups-I-IV; assay type: cell-based; conditions: 100 nM unless noted
Excerpt: (§5) Similar to the cross-group inhibition observed between different agr groups of the same species, this cross-species inhibitory effect has no known biological role, but is hypothesized to provide a competitive advantage on a host (18, 46). Thus, AIP analogs described herein were examined to identify potential species-specific inhibitors that target either S. epidermidis Group-I or S. aureus Groups-I-IV.
as §1, with “The S. epidermidis wild-type strain RP62A (Group-I) was cultured in TSB (from Sigma or EMD Millipore).” left out, “All cultures were grown at 37° C. with shaking (200 rpm) unless noted otherwise.” left out
(§6) Fluorescence reporter assay protocol. […]
as §3

[3] = system: agr system of S. aureus Group-III; assay: Fluorescence (GFP) reporter strain assay, S. aureus Group-III; assay type: cell-based; conditions: 100 nM unless noted
Excerpt: as §5
as §1, with “The S. epidermidis wild-type strain RP62A (Group-I) was cultured in TSB (from Sigma or EMD Millipore).” left out, “All cultures were grown at 37° C. with shaking (200 rpm) unless noted otherwise.” left out
as §6, §3

[4] = dose response antagonism assay, FIGS. 3A/3B

Sequence of AgrC-I receptor (Q5HMY3 entry or part of it): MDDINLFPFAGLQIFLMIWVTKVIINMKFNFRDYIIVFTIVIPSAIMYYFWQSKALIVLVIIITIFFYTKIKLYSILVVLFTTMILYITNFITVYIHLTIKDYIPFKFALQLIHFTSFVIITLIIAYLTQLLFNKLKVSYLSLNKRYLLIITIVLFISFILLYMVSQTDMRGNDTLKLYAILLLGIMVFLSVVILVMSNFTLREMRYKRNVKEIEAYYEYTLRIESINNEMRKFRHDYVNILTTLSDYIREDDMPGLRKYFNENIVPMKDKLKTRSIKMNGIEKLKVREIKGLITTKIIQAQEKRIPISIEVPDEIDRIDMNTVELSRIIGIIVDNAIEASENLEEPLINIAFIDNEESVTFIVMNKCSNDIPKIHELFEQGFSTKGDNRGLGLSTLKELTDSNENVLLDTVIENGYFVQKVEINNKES

Molecule	Effect on biofilm growth, in words [1]	Mode/strength of activity toward AgrC-I (Group I), in words (AgrC-I receptor)	IC50 against AgrC-III, in words (AgrC-III; [4])	Activity toward Group-III at lower concentration, in words (AgrC-III)	IC50 against AgrC-II, in words (AgrC-II; [4])	Activity toward Group-II at lower concentration, in words (AgrC-II)	Effect on agr activity in S. aureus Groups-I-IV, in words [2]	inhibition at 10 µM (AgrC-I receptor; read-out: Inhibition of AgrC-I (inhibiting to ~%))	Activity toward Group-I at lower concentration, in words (AgrC-I receptor)	Activity against Group-III, in words (AgrC-III; single concentration 10 μM)	EC50 in AgrC-I (AgrC-I receptor; activation dose response in the presence of 50 nM S. epidermidis AIP-II)	IC50 in AgrC-I (AgrC-I receptor; antagonism dose response, peptide alone, Group-I GFP reporter strain, 24 h)	Inhibitory activity in S. aureus Group-III, in words [3]
C[C@H](N)C(=O)N[C@@H](CO)C(=O)N[C@@H](C)C(=O)N[C@H]1CSC(=O)[C@H](Cc2ccccc2)NC(=O)[C@H](Cc2ccc(O)cc2)NC(=O)[C@H](C)NC(=O)[C@H](CO)NC1=O [AIP-I D1AS6AV3AA5S, A-S-A-(C-S-A-Y-F)] (H-ASACSAYF; thioester 4-C)	did not increase biofilm growth	analogous potency as the parent triple mutant	subnanomolar to low nanomolar range	strongly inhibited	subnanomolar to low nanomolar range	strongly inhibited	–	–	–	–	–	–	–
CC(C)C[C@@H]1NC(=O)[C@H](Cc2ccc(O)cc2)NC(=O)[C@H](CC(N)=O)NC(=O)[C@H](CO)NC(=O)[C@@H](NC(=O)[C@@H]2CCCN2C(=O)[C@H](CC(N)=O)NC(=O)[C@@H](N)Cc2ccc(O)cc2)CSC1=O [AIP-II 8aa, Y-N-P-(C-S-N-Y-L)] (H-YNPCSNYL; thioester 4-C)	–	potency similar to the parent AIP-II	–	–	–	inhibitory activity against Group-II decreased	without significantly affecting agr activity	~75%	remained active; also recorded: selectively inhibited	inactive	–	–	–
I-N-(C-A-F-L-L) (INCAFLL; bridge 3-C; also: thiolactone between Cys3 side chain and C-terminus) [S. aureus AIP-III D4A, reference compound]	–	largely inactive	–	–	–	inhibiting exclusively Group-II	potent pan-group inhibitor	–	inactive	–	Inactive^c	Inactive^c	–
CC(C)C[C@@H]1NC(=O)[C@H](Cc2ccc(O)cc2)NC(=O)[C@H](CC(N)=O)NC(=O)[C@H](CO)NC(=O)[C@@H](NC(=O)[C@@H]2CCCN2C(=O)[C@H](CC(N)=O)NC(=O)[C@H](Cc2ccc(O)cc2)NC(=O)[C@@H](N)CCCCN)CSC1=O [AIP-II 9aa, K-Y-N-P-(C-S-N-Y-L)] (H-KYNPCSNYL; thioester 5-C)	–	–	–	inactive	–	highly active agonist	–	–	inhibited; also recorded: largely an inhibitor specific to S. epidermidis Group-I	–	–	–	weak inhibitory activity
